Reference: the kinase profiling compilation of Christmann-Franck et al. (2016)

Key:
INSRR (human) = INSRR (human) (UniProt P14616); test: KINOMEscan competition binding; details: compound 10.0 µM
ABL2 (human) = ABL2 (human) (UniProt P42684); test: KINOMEscan competition binding; details: compound 10.0 µM
ADCK3 (human) = ADCK3 (human) (UniProt Q8NI60); test: KINOMEscan competition binding; details: compound 10.0 µM
DYRK1A (human) = DYRK1A (human) (UniProt Q13627); test: KINOMEscan competition binding; details: compound 10.0 µM
[1] = test system: ABL1 (human), P00519 [E255K]; test: KINOMEscan competition binding; details: compound 10.0 µM
EPHA8 (human) = EPHA8 (human) (UniProt P29322); test: KINOMEscan competition binding; details: compound 10.0 µM
WEE2 (human) = WEE2 (human) (UniProt P0C1S8); test: KINOMEscan competition binding; details: compound 10.0 µM
BMPR2 (human) = BMPR2 (human) (UniProt Q13873); test: KINOMEscan competition binding; details: compound 10.0 µM
BMPR1A (human) = BMPR1A (human) (UniProt P36894); test: KINOMEscan competition binding; details: compound 10.0 µM
DDR1 (human) = DDR1 (human) (UniProt Q08345); test: KINOMEscan competition binding; details: compound 10.0 µM
SYK (human) = SYK (human) (UniProt P43405); test: KINOMEscan competition binding; details: compound 10.0 µM
[2] = test system: RET (human), P07949 [V804M]; test: KINOMEscan competition binding; details: compound 10.0 µM
LIMK1 (human) = LIMK1 (human) (UniProt P53667); test: KINOMEscan competition binding; details: compound 10.0 µM
DCLK1 (human) = DCLK1 (human) (UniProt O15075); test: KINOMEscan competition binding
EPHA4 (human) = EPHA4 (human) (UniProt P54764); test: KINOMEscan competition binding; details: compound 10.0 µM
PIK3CD (human) = PIK3CD (human) (UniProt O00329); test: KINOMEscan competition binding; details: compound 10.0 µM
CAMK4 (human) = CAMK4 (human) (UniProt Q16566); test: KINOMEscan competition binding; details: compound 10.0 µM
PRKAA2 (human) = PRKAA2 (human) (UniProt P54646); test: KINOMEscan competition binding; details: compound 10.0 µM
MAP3K12 (human) = MAP3K12 (human) (UniProt Q12852); test: KINOMEscan competition binding; details: compound 10.0 µM
FGFR3 (human) = FGFR3 (human) (UniProt P22607); test: KINOMEscan competition binding; details: compound 10.0 µM
LTK (human) = LTK (human) (UniProt P29376); test: KINOMEscan competition binding; details: compound 10.0 µM
CSK (human) = CSK (human) (UniProt P41240); test: KINOMEscan competition binding; details: compound 10.0 µM
ROS1 (human) = ROS1 (human) (UniProt P08922); test: KINOMEscan competition binding; details: compound 10.0 µM
PTK2 (human) = PTK2 (human) (UniProt Q05397); test: KINOMEscan competition binding; details: compound 10.0 µM
MLTK (human) = MLTK (human) (UniProt Q9NYL2); test: KINOMEscan competition binding; details: compound 10.0 µM
CDK7 (human) = CDK7 (human) (UniProt P50613); test: KINOMEscan competition binding; details: compound 10.0 µM
ERBB3 (human) = ERBB3 (human) (UniProt P21860); test: KINOMEscan competition binding; details: compound 10.0 µM
CDK2 (human) = CDK2 (human) (UniProt P24941); test: KINOMEscan competition binding; details: compound 10.0 µM
MAPK9 (human) = MAPK9 (human) (UniProt P45984); test: KINOMEscan competition binding; details: compound 10.0 µM
LRRK2 (human) = LRRK2 (human) (UniProt Q5S007); test: SelectScreen, TR FRET
NUAK1 (human) = NUAK1 (human) (UniProt O60285); test: SelectScreen, TR FRET
PLK1 (human) = PLK1 (human) (UniProt P53350); test: SelectScreen, TR FRET
AURKB (human) = AURKB (human) (UniProt Q96GD4); test: SelectScreen, TR FRET
CHEK2 (human) = CHEK2 (human) (UniProt O96017); test: SelectScreen, TR FRET
MYLK (human) = MYLK (human) (UniProt Q15746); test: SelectScreen, TR FRET
AURKA (human) = AURKA (human) (UniProt O14965); test: SelectScreen, TR FRET
DCLK2 (human) = DCLK2 (human) (UniProt Q8N568); test: SelectScreen, TR FRET
MKNK2 (human) = MKNK2 (human) (UniProt Q9HBH9); test: SelectScreen, TR FRET

Sequence of DCLK1 (human) (O15075 whole entry, looked up): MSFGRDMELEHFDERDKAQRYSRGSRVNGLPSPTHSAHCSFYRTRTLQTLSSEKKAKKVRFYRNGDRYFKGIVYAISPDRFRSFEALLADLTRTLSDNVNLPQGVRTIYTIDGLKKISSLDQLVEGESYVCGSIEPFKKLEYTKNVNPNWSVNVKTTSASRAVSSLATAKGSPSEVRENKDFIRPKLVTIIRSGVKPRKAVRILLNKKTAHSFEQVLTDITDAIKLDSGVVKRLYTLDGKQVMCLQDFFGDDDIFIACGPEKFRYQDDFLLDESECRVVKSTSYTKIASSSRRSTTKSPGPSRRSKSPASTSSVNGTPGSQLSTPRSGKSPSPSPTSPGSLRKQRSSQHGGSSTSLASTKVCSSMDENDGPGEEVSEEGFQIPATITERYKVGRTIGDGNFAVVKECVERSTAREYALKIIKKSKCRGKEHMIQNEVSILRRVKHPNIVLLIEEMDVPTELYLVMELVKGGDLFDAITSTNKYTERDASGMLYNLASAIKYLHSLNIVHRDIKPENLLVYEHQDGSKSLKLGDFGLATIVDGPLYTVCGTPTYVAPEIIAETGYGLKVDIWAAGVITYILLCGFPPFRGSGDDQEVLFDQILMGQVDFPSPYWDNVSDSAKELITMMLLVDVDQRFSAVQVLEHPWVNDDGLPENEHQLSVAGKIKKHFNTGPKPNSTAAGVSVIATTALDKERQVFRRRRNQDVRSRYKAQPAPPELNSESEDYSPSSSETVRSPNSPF
Sequence of AURKB (human) (Q96GD4 whole entry, looked up): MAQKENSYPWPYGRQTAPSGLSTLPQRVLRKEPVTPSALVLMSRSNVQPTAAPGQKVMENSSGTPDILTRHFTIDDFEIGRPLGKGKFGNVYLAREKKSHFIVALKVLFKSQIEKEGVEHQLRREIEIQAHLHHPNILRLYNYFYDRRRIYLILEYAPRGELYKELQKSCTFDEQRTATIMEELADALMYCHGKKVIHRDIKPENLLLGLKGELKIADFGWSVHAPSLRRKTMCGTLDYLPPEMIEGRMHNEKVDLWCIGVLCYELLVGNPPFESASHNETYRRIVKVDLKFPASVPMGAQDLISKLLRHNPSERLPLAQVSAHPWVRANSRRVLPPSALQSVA
Sequence of EPHA4 (human) (P54764 whole entry, looked up): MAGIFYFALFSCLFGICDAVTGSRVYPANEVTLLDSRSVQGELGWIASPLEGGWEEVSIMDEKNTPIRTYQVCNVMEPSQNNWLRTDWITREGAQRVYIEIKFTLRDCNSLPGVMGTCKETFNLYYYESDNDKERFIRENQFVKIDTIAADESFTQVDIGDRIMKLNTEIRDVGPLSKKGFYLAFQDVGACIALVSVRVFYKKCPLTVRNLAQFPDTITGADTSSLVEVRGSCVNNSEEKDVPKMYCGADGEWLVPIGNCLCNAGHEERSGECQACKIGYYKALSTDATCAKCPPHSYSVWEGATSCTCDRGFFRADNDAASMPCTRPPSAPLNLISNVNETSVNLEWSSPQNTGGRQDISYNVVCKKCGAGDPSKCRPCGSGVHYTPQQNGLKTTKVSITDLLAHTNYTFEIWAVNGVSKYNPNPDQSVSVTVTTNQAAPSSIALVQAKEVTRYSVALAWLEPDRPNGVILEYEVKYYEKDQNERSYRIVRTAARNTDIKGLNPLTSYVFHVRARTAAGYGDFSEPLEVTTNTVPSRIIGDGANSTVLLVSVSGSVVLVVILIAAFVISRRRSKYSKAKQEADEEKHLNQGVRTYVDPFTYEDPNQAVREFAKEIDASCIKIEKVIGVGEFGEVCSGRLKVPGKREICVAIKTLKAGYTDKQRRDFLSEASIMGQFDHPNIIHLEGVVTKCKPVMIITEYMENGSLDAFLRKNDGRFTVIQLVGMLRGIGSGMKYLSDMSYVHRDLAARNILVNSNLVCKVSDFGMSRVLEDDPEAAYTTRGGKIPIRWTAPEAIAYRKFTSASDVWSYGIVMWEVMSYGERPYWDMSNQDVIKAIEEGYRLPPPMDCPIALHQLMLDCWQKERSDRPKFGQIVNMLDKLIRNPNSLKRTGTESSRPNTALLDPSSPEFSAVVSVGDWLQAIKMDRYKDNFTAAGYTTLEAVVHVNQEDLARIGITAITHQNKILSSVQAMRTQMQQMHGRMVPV
Sequence of MYLK (human) (Q15746 whole entry, looked up): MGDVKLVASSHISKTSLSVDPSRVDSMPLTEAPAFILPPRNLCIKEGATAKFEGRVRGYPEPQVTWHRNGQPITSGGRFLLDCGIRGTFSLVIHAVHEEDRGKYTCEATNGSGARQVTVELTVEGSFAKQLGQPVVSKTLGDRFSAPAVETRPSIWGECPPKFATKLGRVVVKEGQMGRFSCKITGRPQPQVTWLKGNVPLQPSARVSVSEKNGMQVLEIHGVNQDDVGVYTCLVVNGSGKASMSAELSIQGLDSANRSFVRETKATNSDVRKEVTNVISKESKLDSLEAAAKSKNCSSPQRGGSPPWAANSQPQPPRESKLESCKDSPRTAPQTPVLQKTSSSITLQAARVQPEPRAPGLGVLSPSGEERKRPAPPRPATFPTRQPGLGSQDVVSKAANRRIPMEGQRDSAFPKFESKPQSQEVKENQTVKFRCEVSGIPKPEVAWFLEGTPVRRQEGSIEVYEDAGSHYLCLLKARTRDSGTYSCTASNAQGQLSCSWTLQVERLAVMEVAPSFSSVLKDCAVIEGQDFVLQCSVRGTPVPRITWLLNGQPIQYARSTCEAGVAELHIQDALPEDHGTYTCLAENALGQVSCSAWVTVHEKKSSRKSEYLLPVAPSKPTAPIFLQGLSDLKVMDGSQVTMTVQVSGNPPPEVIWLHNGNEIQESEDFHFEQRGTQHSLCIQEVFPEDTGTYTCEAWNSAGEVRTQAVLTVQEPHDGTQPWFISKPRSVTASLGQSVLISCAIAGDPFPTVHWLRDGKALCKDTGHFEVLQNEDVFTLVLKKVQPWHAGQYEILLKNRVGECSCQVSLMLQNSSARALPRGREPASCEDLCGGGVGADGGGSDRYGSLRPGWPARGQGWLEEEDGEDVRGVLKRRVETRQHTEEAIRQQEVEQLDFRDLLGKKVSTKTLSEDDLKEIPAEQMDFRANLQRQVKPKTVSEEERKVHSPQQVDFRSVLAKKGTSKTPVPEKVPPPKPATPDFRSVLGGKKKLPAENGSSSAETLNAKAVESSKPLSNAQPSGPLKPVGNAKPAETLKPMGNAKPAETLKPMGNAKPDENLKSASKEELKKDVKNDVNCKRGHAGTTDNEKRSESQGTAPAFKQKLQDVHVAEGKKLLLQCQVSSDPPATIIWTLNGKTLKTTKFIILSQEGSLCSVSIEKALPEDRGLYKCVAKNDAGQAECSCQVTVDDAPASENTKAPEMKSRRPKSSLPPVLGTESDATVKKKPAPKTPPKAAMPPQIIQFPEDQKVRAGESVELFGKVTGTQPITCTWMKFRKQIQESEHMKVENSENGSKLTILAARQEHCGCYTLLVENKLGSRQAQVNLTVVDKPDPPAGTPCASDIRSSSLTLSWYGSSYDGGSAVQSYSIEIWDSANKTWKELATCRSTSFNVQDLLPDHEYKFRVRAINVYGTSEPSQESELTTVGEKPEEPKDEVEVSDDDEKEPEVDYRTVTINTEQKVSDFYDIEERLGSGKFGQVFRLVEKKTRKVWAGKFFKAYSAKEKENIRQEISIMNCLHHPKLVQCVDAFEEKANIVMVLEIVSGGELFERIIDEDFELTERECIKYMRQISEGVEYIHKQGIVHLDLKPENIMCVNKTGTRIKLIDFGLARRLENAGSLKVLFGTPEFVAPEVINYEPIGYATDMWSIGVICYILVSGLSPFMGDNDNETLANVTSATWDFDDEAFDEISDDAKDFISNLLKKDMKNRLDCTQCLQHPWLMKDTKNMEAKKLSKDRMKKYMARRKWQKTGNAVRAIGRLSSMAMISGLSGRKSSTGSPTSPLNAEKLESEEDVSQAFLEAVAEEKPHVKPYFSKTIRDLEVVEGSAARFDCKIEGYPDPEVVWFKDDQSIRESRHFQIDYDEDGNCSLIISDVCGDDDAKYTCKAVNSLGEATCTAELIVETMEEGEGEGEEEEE
Sequence of MAP3K12 (human) (Q12852 whole entry, looked up): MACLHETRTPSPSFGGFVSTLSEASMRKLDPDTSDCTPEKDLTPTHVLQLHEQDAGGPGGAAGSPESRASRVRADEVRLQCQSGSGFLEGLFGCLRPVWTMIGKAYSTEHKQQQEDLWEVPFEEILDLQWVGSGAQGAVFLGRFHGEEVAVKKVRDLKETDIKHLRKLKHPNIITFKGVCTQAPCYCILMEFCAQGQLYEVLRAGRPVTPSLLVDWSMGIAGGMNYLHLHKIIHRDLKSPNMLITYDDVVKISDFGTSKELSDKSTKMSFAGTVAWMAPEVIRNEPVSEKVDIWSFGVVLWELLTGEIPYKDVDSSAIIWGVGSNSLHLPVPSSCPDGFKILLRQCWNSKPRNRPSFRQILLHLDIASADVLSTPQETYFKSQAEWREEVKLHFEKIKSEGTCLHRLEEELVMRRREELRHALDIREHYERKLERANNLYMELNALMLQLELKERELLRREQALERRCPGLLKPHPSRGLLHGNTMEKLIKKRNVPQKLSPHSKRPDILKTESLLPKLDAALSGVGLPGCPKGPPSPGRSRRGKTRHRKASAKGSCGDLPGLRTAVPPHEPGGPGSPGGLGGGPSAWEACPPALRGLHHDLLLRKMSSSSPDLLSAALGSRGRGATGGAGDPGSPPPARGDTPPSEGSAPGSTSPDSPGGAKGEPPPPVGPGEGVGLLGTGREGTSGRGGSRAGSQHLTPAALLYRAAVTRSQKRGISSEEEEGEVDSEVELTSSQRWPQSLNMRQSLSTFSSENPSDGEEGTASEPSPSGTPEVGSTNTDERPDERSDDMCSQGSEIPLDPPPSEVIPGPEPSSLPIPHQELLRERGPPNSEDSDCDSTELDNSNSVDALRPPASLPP

`COc1cc(C(=O)N2CCC(N3CCN(C)CC3)CC2)ccc1Nc1ncc2c(n1)N(C)c1ccccc1C(=O)N2C` gave a kinase still bound, per cent of control (INSRR (human)) of 97%, a kinase still bound, per cent of control (ABL2 (human)) of 97% and a kinase still bound, per cent of control (ADCK3 (human)) of 71%. For the same compound, the kinase still bound, per cent of control (DYRK1A (human)) was 99%, the kinase still bound, per cent of control [1] was 80% and the kinase still bound, per cent of control (EPHA8 (human)) was 80%. It also gave a kinase still bound, per cent of control (WEE2 (human)) of 100%, a kinase still bound, per cent of control (BMPR2 (human)) of 100% and a kinase still bound, per cent of control (BMPR1A (human)) of 100%. It also gave a kinase still bound, per cent of control (DDR1 (human)) of 100%, a kinase still bound, per cent of control (SYK (human)) of 100% and a kinase still bound, per cent of control [2] of 80%. For the same compound, the kinase still bound, per cent of control (LIMK1 (human)) was 95%, the Kd (DCLK1 (human)) was 5 nM and the kinase still bound, per cent of control (DCLK1 (human); compound 10.0 µM) was 4.2%. The kinase still bound, per cent of control (EPHA4 (human)) was 89%, the kinase still bound, per cent of control (PIK3CD (human)) was 62% and the kinase still bound, per cent of control (CAMK4 (human)) was 79%. The kinase still bound, per cent of control (PRKAA2 (human)) was 66%, the residual activity (MAP3K12 (human)) was 81% and the kinase still bound, per cent of control (FGFR3 (human)) was 80%. For the same compound, the kinase still bound, per cent of control (LTK (human)) was 32%, the kinase still bound, per cent of control (CSK (human)) was 90% and the kinase still bound, per cent of control (ROS1 (human)) was 12%. The kinase still bound, per cent of control (PTK2 (human)) was 34%, the kinase still bound, per cent of control (MLTK (human)) was 99% and the residual activity (CDK7 (human)) was 86%. For the same compound, the kinase still bound, per cent of control (ERBB3 (human)) was 100%, the residual activity (CDK2 (human)) was 100% and the kinase still bound, per cent of control (MAPK9 (human)) was 94%. It also gave an IC50 (LRRK2 (human)) of 3 nM, an IC50 (NUAK1 (human)) of 3.67 µM and an IC50 (PLK1 (human)) of 983 µM. The IC50 (AURKB (human)) was 5.92 µM, the IC50 (CHEK2 (human)) was 6.51 µM and the IC50 (MYLK (human)) was 8.21 µM. For the same compound, the IC50 (AURKA (human)) was 870 nM, the IC50 (DCLK2 (human)) was 45 µM and the IC50 (MKNK2 (human)) was 4.47 µM.
